Tests used:
protein kinase C (PKC) = experiment: Inhibition of protein kinase C in mouse epidermal cell line Pam212; type: cell-based; settings: Pam212 cells treated at 100 μM and 400 μM; FIG. 6
Procedure: An anti-inflammation effect of the cream composition according to the invention was evaluated by assessing inhibition of protein kinase C (PKC) in mouse epidermal cell line (Pam212). The cultured epidermal cells at 2×10^7 cells/ml were treated with phytosphingosine or derivatives thereof at final concentrations of 100 μM, and 400 μM. After washing with PBS, the cells were disrupted using a homogenizer and centrifuged. The supernatant was passed through a DE52 column to obtain a fraction containing PKC. To measure the amount of activated PKC in the fractions, 5 μl each of a PKC coactivation 5× buffer, PKC activation 5× buffer, PKC biotinylated peptide substrate and ^32P-ATP mixture were added to a tube. For a negative control, 5 μl each of a PKC coactivation 5× buffer, Control 5× buffer, PKC biotinylated peptide substrate and ^32P-ATP mixture were measured. To the tubes were added 5 μl of respective PKC fractions. The reaction was performed at 30° C. for 5 min. After terminating the reaction by adding a 12.5 μl stop solution, a 10 μl aliquot was dropped on a SAM^2™ membrane. The membrane was washed 1× with 2M NaCl for 30 sec, 3× with 2M NaCl for 2 min, 4× with a solution of 1% H3PO4 and 2M NaCl for 2 min, and 2× with distilled water for 30 sec, followed by drying. Radioactivity was measured to examine a PKC inhibition effect.

Langerhans cells = experiment: Effect on number of Langerhans cells in skin explant; type: cell-based; settings: 1% test sample
Procedure: Langerhans cells play a role in mediating immune response of the skin. Treatment of skin disorders related to a hypersensitive immune response can be accomplished by regulating either the number or the antigen-presenting ability of Langerhans cells. To examine the efficacy of sphingolipid long-chain base on the regulation of the number of Langerhans cells, a test was performed as follows. Each skin explant was applied with a 1% test sample containing sphingolipid.

[1] = system: full-thickness circular ear wounds; experiment: Wound repair in rabbits (6 mm punch wounds in ears); type: in vivo, New Zealand White rabbits; settings: rabbit ear wounds; 5, 10, 50 μM, 10 μl every second day; FIG. 3
Procedure: As an experimental animal model, female New Zealand White rabbits (2 kg in body weight) were employed to evaluate the efficacy of phytosphingosine and derivatives thereof on wound healing.
The rabbits were anesthetized with an intramuscular injection of ketamine (3 to 4 mg/kg). After removing hairs and a horny layer (stratum corneum) inside the both ears, 4 full-thickness circular wounds were created in each ear using a 6 mm-punch biopsy. As a control, PBS solution containing 0.1% BSA was applied to the wound regions at an amount of 10 μl every second day. For test groups, a composition comprising lysophosphatidic acid only, a composition comprising sphingolipid long-chain base only, and a composition comprising a combination thereof were applied each at varying concentrations (5 μM, 10 μM and 50 μM) at a volume of 10 μl every second day. The wounds applied with those agents were sealed with Cathreep (Nichiban Co., Japan). On 4th and 8th day after application, the rabbits were sacrificed, and the wound areas were histologically examined.

human skin fibroblasts [2] = experiment: Tracing metabolic pathway in human skin fibroblasts (TLC of lipid extracts); type: in vitro ADME; settings: 20 μM, 48 hrs
Procedure: Human skin fibroblasts were employed as the cell line for the study. Phytosphingosine, tetraacetyl phytosphingosine, and acetyl phytosphingosine were respectively dissolved in a mixture of ethanol/dodecane, preparing stock solutions at certain concentrations. When the fibroblasts became confluent in 7 cm diameter culture dishes, 20 μM of the respective test samples was added and cultured in a CO2 incubator for 48 hrs. Cells were harvested and treated according to a common extraction method for sphingolipids. Hydrolysis was performed under basic conditions at 37° C. overnight. The samples were passed through a reverse phase column to remove salts. The desalted lipid extracts were subjected to a TLC analysis on Silica gel 60 G plates (Merck, Germany), using chloroform/methanol/concentrated acetic acid (190/9/1) to elute neutral lipids.

human skin fibroblasts [3] = type: cell-based

## CCCCCCCCCCCCCC[C@@H](O)[C@@H](O)[C@H](CO)NC(C)=O [N-acetyl phytosphingosine]
Protein kinase C (PKC)
  PKC inhibition effect: excellent PKC inhibition effects

## CCCCCCCCCCCCCC[C@@H](O)[C@@H](O)[C@@H](N)CO [phytosphingosine]
Protein kinase C (PKC)
  PKC inhibition effect: excellent PKC inhibition effects
Langerhans cells
  Efficacy on reducing the number of Langerhans cells (comparison): greater than that of tetraacetyl phytosphingosine
[1]
  Rates of wound healing (%) compared to untreated control group: highly accelerate the rates of wound healing

## lysophosphatidic acid
[1]
  Rates of wound healing (%) compared to untreated control group: highly accelerate the rates of wound healing

## tetraacetyl phytosphingosine
Protein kinase C (PKC)
  PKC inhibition effect: excellent PKC inhibition effects
Human skin fibroblasts [2]
  Metabolic conversion within the cells: converted to C2-phytoceramide
Human skin fibroblasts [3]
  Cytotoxicity relative to other sphingolipid long-chain bases: lower cytotoxicity than other sphingolipid long-chain bases

— patent publication US6964952B2, “Therapeutic composition for broad spectrum dermal disease” (Doosan Corporation, priority 2001, dated 2005)
